# US12247010B2, “Tubulin inhibitors” (LIN BIOSCIENCE PTY LTD., priority 2017, dated 2025)
# System: U87MG cells
# Test: Cytotoxicity assay (cell viability, CellTiter 96 Aqueous MTS)
# Type: cell-based
# Settings: Homo sapiens, U-87 MG, 72 h, 72 hours incubation, starting concentration 50 uM, 9 point half log dilution, average where tested repeatedly
# Summary of the method: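 U87MG cells plated at 7×10^3 cells/well overnight, then treated 72 h with 9-point half-log dilutions from a 50 uM starting concentration. Viability measured with CellTiter 96 Aqueous MTS; IC50 calculated from viability.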
row,Structure (SMILES),IC50 [nM]
1,"O=C(CCCc1ccc(-c2ccc3c(c2)OCC(=O)N3)cc1)Nc1cccnc1 [Compound 224, 4-(4-(3-oxo-3,4-dihydro-2H-benzo[b][1,4]oxazin-7-triazoloyl)phenyl)-N-(pyridin-3-yl)butanamide]",< 500
2,"O=C(CCCc1ccc(-c2cccc(Cl)c2F)cc1)Nc1cccnc1 [Compound 225, 4-(3′-chloro-2′-fluoro-[1,1′-biphenyl]-4-yl)-N-(pyridin-3-yl)butanamide]",> 5000
3,"Cc1cc(C(=O)NCCCc2ccc(-c3ccc4c(cnn4C)c3)cc2)no1 [Compound 227, 5-methyl-N-(3-(4-(1-methyl-1H-indazol-5-yl)phenyl)propyl)isoxazole-3-carboxamide]",< 500
4,"Cc1cc(C(=O)NCCCc2ccc(-c3ccc4[nH]ncc4c3C)cc2)n(C)n1 [Compound 228, 1,3-dimethyl-N-(3-(4-(4-methyl-1H-indazol-5-yl)phenyl)propyl)-1H-pyrazole-5-carboxamide]",< 500
5,"Cc1ccc(C(=O)NCCCc2ccc(-c3cnc4[nH]ccc4c3)cc2)cn1 [Compound 229, N-(3-(4-(1H-pyrrolo[2,3-b]pyridin-5-yl)phenyl)propyl)-6-methylnicotinamide]",< 500
6,"Cn1ncc2cc(-c3ccc(CCCNC(=O)c4cncnc4)cc3)ccc21 [Compound 231, N-(3-(4-(1-methyl-1H-indazol-5-yl)phenyl)propyl)pyrimidine-5-carboxamide]",< 500
7,"COc1cccc(-c2ccc(CCCNC(=O)c3ccc(C)nc3)cc2)c1F [Compound 234, N-(3-(2′-fluoro-3′-methoxy-[1,1′-biphenyl]-4-yl)propyl)-6-methylnicotinamide]",< 500
8,"Cc1cc(C(=O)NCCCc2ccc(-c3cnc4[nH]ccc4c3)cc2)no1 [Compound 235, N-(3-(4-(1H-pyrrolo[2,3-b]pyridin-5-yl)phenyl)propyl)-5-methylisoxazole-3-carboxamide]",< 500
9,"Cc1cc(C(=O)NCCCc2ccc(-c3ccc4c(cnn4C)c3)cc2)n(C)n1 [Compound 236, 1,3-dimethyl-N-(3-(4-(1-methyl-1H-indazol-5-yl)phenyl)propyl)-1H-pyrazole-5-carboxamide]",< 500
10,"Cc1ccc(C(=O)NCCCc2ccc(-c3ccc4ncccc4c3)cc2)cn1 [Compound 237, 6-methyl-N-(3-(4-(quinolin-6-yl)phenyl)propyl)nicotinamide]",< 500
11,"COc1cccc(-c2ccc(CCCNC(=O)c3cc(C)nn3C)cc2)c1F [Compound 238, N-(3-(2′-fluoro-3′-methoxy-[1,1′-biphenyl]-4-yl)propyl)-1,3-dimethyl-1H-pyrazole-5-carboxamide]",501 to 1000
12,"COc1cccc(-c2ccc(CCCNC(=O)c3cc(C)on3)cc2)c1F [Compound 240, N-(3-(2′-fluoro-3′-methoxy-[1,1′-biphenyl]-4-yl)propyl)-5-methylisoxazole-3-carboxamide]",501 to 1000
13,"Cc1ncccc1C(=O)NCCCc1ccc(-c2ccc3c(cnn3C)c2)cc1 [Compound 241, 2-methyl-N-(3-(4-(1-methyl-1H-indazol-5-yl)phenyl)propyl)nicotinamide]",< 500
14,"Cc1cc(C(=O)NCCCc2ccc(-c3ccc4ncccc4c3)cc2)n(C)n1 [Compound 242, 1,3-dimethyl-N-(3-(4-(quinolin-6-yl)phenyl)propyl)-1H-pyrazole-5-carboxamide]",< 500
15,"COc1ccc(CC(=O)NCCCc2ccc(-c3ccc4c(cnn4C)c3)cc2)cc1 [Compound 244, 2-(4-methoxyphenyl)-N-(3-(4-(1-methyl-1H-indazol-5-yl)phenyl)propyl)acetamide]",< 500
16,"COc1ccc(CC(=O)NCCCc2ccc(-c3cccc(OC)c3F)cc2)cc1 [Compound 245, N-(3-(2′-fluoro-3′-methoxy-[1,1′-biphenyl]-4-yl)propyl)-2-(4-methoxyphenyl)acetamide]",501 to 1000
17,"COc1ccc(CC(=O)NCCCc2ccc(-c3ccc4ncccc4c3)cc2)cc1 [Compound 246, 2-(4-methoxyphenyl)-N-(3-(4-(quinolin-6-yl)phenyl)propyl)acetamide]",< 500
18,"COc1ccc(CC(=O)NCCCc2ccc(-c3ccc4[nH]ncc4c3C)cc2)cc1 [Compound 247, 2-(4-methoxyphenyl)-N-(3-(4-(4-methyl-1H-indazol-5-yl)phenyl)propyl)acetamide]",< 500
19,COc1cccc(-c2ccc(CCCNC(=O)c3cncnc3)cc2)c1F [Compound 248],501 to 1000
20,"O=S(=O)(NCCCc1ccc(-c2ccccc2F)cc1)c1cccnc1 [Compound 262, N-(3-(2′-fluoro-[1,1′-biphenyl]-4-yl)propyl) pyridine-3-sulfonamide]",1000 to 5000
21,"Cn1cnc(S(=O)(=O)NCCCc2ccc(-c3ccccc3F)cc2)c1 [Compound 263, N-(3-(2′-fluoro-[1,1′-biphenyl]-4-yl)propyl)-1-methyl-1H-imidazole-4-sulfonamide]",1000 to 5000
22,"O=C(Nc1ccc2[nH]ccc2c1)OCCc1ccc(-c2ccccc2F)cc1 [Compound 272, 2-(2′-fluoro-[1,1′-biphenyl]-4-yl)ethyl (1H-indol-5-yl)carbamate]",> 5000

row,Structure (SMILES),IC50 [nM]
1,"COc1ccc(CNC(=O)OCCc2ccc(-c3ccccc3F)cc2)cc1 [Compound 273, 2-(2′-fluoro-[1,1′-biphenyl]-4-yl)ethyl (4-methoxybenzyl)carbamate]",> 5000
2,"Cc1ccc(NC(=O)OCCc2ccc(-c3ccccc3F)cc2)cn1 [Compound 274, 2-(2′-fluoro-[1,1′-biphenyl]-4-yl)ethyl (6-methylpyridin-3-yl)carbamate]",> 5000
3,"COc1cccc(-c2ccc(CC(C)(C)CNC(=O)c3ccc(C)nc3)cc2)c1F [Compound 276, N-(3-(2′-fluoro-3′-methoxy-[1,1′-biphenyl]-4-yl)-2,2-dimethylpropyl)-6-methylnicotinamide]",1000 to 5000
4,"Cc1ccc(C(=O)NCC(C)(C)Cc2ccc(-c3ccc4c(cnn4C)c3)cc2)cn1 [Compound 277, N-(2,2-dimethyl-3-(4-(1-methyl-1H-indazol-5-yl)phenyl)propyl)-6-methylnicotinamide]",501 to 1000
5,"O=C(Nc1cccnc1)N1CCN(c2ccc(-c3ccccc3F)cc2)CC1 [Compound 278, 4-(2′-fluoro-[1,1′-biphenyl]-4-yl)-N-(pyridin-3-yl)piperazine-1-carboxamide]",1000 to 5000
6,"Cc1ccc(NC(=O)N2CCN(c3ccc(-c4ccccc4F)cc3)CC2)cn1 [Compound 279, 4-(2′-fluoro-[1,1′-biphenyl]-4-yl)-N-(6-methylpyridin-3-yl)piperazine-1-carboxamide]",501 to 1000
7,"O=C(Nc1cn[nH]c1)N1CCN(c2ccc(-c3ccccc3F)cc2)CC1 [Compound 281, 4-(2′-fluoro-[1,1′-biphenyl]-4-yl)-N-(1H-pyrazol-4-yl)piperazine-1-carboxamide]",> 5000
8,"Cc1ccc(C(=O)NCCOc2ccc(-c3ccccc3F)cc2)cn1 [Compound 282, N-(2-((2′-fluoro-[1,1′-biphenyl]-4-yl)oxy)ethyl)-6-methylnicotinamide]",> 5000
9,"O=C(Cc1ccc(F)cc1)NCCCc1ccc(-c2ccccc2F)cc1 [Compound 284, N-(3-(2′-fluoro-[1,1′-biphenyl]-4-yl)propyl)-2-(4-fluorophenyl)acetamide]",< 500
10,"Cc1oncc1C(=O)NCCCc1ccc(-c2ccccc2F)cc1 [Compound 285, N-(3-(2′-fluoro-[1,1′-biphenyl]-4-yl)propyl)-5-methylisoxazole-4-carboxamide]",> 5000
11,"Cc1cc2ncc(C(=O)NCCCc3ccc(-c4ccccc4F)cc3)cn2n1 [Compound 286, N-(3-(2′-fluoro-[1,1′-biphenyl]-4-yl)propyl)-2-methylpyrazolo[1,5-a]pyrimidine-6-carboxamide]",< 500
12,"Cc1ncoc1C(=O)NCCCc1ccc(-c2ccccc2F)cc1 [Compound 290, N-(3-(2′-fluoro-[1,1′-biphenyl]-4-yl)propyl)-4-methyloxazole-5-carboxamide]",> 5000
13,"COc1ncccc1C(=O)NCCCc1ccc(-c2ccccc2F)cc1 [Compound 292, N-(3-(2′-fluoro-[1,1′-biphenyl]-4-yl)propyl)-2-methoxynicotinamide]",> 5000
14,"O=C(Cc1ccc2c(c1)OCCO2)NCCCc1ccc(-c2ccccc2F)cc1 [Compound 293, 2-(2,3-dihydrobenzo[b][1,4]dioxin-6-yl)-N-(3-(2′-fluoro-[1,1′-biphenyl]-4-yl)propyl)acetamide]",> 5000
15,"Cn1ccc2cc(-c3ccc(CCCC(=O)Nc4cccnc4)cc3)cnc21 [Compound 294, 4-(4-(1-methyl-1H-pyrrolo[2,3-b]pyridin-5-yl)phenyl)-N-(pyridin-3-yl)butanamide]",501 to 1000
16,"O=C(CCCc1ccc(-c2c[nH]c3ncccc23)cc1)Nc1cccnc1 [Compound 295, 4-(4-(1H-pyrrolo[2,3-b]pyridin-3-yl)phenyl)-N-(pyridin-3-yl)butanamide]",1000 to 5000
17,"Cn1cnc2cc(-c3ccc(CCCC(=O)Nc4cccnc4)cc3)ccc21 [Compound 296, 4-(4-(1-methyl-1H-benzo [d]imidazol-5-yl)phenyl)-N-(pyridin-3-yl)butanamide]",< 500
18,"Cc1nc2cc(-c3ccc(CCCC(=O)Nc4cccnc4)cc3)ccc2n1C [Compound 297, 4-(4-(1,2-dimethyl-1H-benzo[d]imidazol-5-yl)phenyl)-N-(pyridin-3-yl)butanamide]",< 500
19,"Cn1cnc2ccc(-c3ccc(CCCC(=O)Nc4cccnc4)cc3)cc2c1=O [Compound 299, 4-(4-(3-methyl-4-oxo-3,4-dihydroquinazolin-6-yl)phenyl)-N-(pyridin-3-yl)butanamide]",> 5000
20,"Cc1cc(-c2ccc(CCCC(=O)Nc3cccnc3)cc2)cc2cn[nH]c12 [Compound 301, 4-(4-(7-methyl-1H-indazol-5-yl)phenyl)-N-(pyridin-3-yl)butanamide]",< 500
21,"Cc1cc2[nH]ncc2cc1-c1ccc(CCCC(=O)Nc2cccnc2)cc1 [Compound 302, 4-(4-(6-methyl-1H-indazol-5-yl)phenyl)-N-(pyridin-3-yl)butanamide]",1000 to 5000
